According to ChEMBL document CHEMBL1201862, “PubChem BioAssay data set” (2004):
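Growth conditions: 96-well plates. Treatment: test compound, 48 hours, 5 concentrations. Analysis: linear interpolation between bracketing concentrations; unreached endpoints set to highest concentration. GI50 = concentration required for 50% inhibition of growth.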 The source made the active and inactive calls. Cut-off read from the data, not from the text of the source: active = GI50 up to about 1.1 µM and inactive = higher.

What was measured:
Test in all cases: NCI tumour cell line growth inhibition, 48 h
786-0 = test system: 786-0
A549 = test system: A549
ACHN = test system: ACHN
BT-549 = test system: BT-549
CAKI-1 = test system: CAKI-1
CCRF-CEM = test system: CCRF-CEM
COLO 205 = test system: COLO 205
DU-145 = test system: DU-145
EKVX = test system: EKVX
HCC 2998 = test system: HCC 2998
HCT-116 = test system: HCT-116
HCT-15 = test system: HCT-15
HL-60 = test system: HL-60
HOP-62 = test system: HOP-62
HOP-92 = test system: HOP-92
HT-29 = test system: HT-29
Hs-578T = test system: Hs-578T
IGROV-1 = test system: IGROV-1
KM12 = test system: KM12
LOX IMVI = test system: LOX IMVI
M14 = test system: M14
MCF7 = test system: MCF7
MDA-MB-231 = test system: MDA-MB-231
MDA-MB-435 = test system: MDA-MB-435
MDA-N = test system: MDA-N
MOLT-4 = test system: MOLT-4
Malme-3M = test system: Malme-3M
NCI-H226 = test system: NCI-H226
NCI-H23 = test system: NCI-H23
NCI-H460 = test system: NCI-H460
NCI-H522 = test system: NCI-H522
NCI/ADR-RES = test system: NCI/ADR-RES
OVCAR-3 = test system: OVCAR-3
OVCAR-4 = test system: OVCAR-4
OVCAR-5 = test system: OVCAR-5
OVCAR-8 = test system: OVCAR-8
PC-3 = test system: PC-3
RPMI-8226 = test system: RPMI-8226
SF-268 = test system: SF-268
SF-295 = test system: SF-295
SF-539 = test system: SF-539
SK-MEL-28 = test system: SK-MEL-28
SK-MEL-2 = test system: SK-MEL-2
SK-MEL-5 = test system: SK-MEL-5
SK-OV-3 = test system: SK-OV-3
SN12C = test system: SN12C
SNB-19 = test system: SNB-19
SNB-75 = test system: SNB-75
SW-620 = test system: SW-620
T47D = test system: T47D
TK-10 = test system: TK-10
U-251 = test system: U-251
UACC-257 = test system: UACC-257
UACC-62 = test system: UACC-62
UO-31 = test system: UO-31
K562 = test system: K562
SR = test system: SR

`Clc1ccc(/C=N/c2ccc(Oc3ccc(Cl)cc3)c(Cl)c2)cc1` was tested, and the GI50 (786-0) was 17.9 µM (inactive), the GI50 (A549) was 22.3 µM (inactive) and the GI50 (ACHN) was 34.1 µM (inactive). The GI50 (BT-549) was 21.7 µM (inactive), the GI50 (CAKI-1) was 6.41 µM (inactive) and the GI50 (CCRF-CEM) was 15.8 µM (inactive). The GI50 (COLO 205) was 21.6 µM (inactive), the GI50 (DU-145) was 30.8 µM (inactive) and the GI50 (EKVX) was 27.8 µM (inactive). The GI50 (HCC 2998) was 21.5 µM (inactive), the GI50 (HCT-116) was 17.9 µM (inactive) and the GI50 (HCT-15) was 21.8 µM. The GI50 (HL-60) was 23.3 µM (inactive), the GI50 (HOP-62) was 19.4 µM (inactive) and the GI50 (HOP-92) was 19.4 µM (inactive). For the same molecule, the GI50 (HT-29) was 23.7 µM (inactive), the GI50 (Hs-578T) was 21.5 µM (inactive) and the GI50 (IGROV-1) was 38.5 µM (inactive). For the same molecule, the GI50 (KM12) was 24.8 µM (inactive), the GI50 (LOX IMVI) was 18.8 µM (inactive) and the GI50 (M14) was 21.1 µM (inactive). The GI50 (MCF7) was 30.8 µM (inactive), the GI50 (MDA-MB-231) was 22 µM (inactive) and the GI50 (MDA-MB-435) was 29.7 µM (inactive). The GI50 (MDA-N) was 19.1 µM (inactive), the GI50 (MOLT-4) was 25.5 µM (inactive) and the GI50 (Malme-3M) was 20.2 µM (inactive). The GI50 (NCI-H226) was 35.3 µM (inactive), the GI50 (NCI-H23) was 23.5 µM (inactive) and the GI50 (NCI-H460) was 21.5 µM (inactive). For the same molecule, the GI50 (NCI-H522) was 14.3 µM (inactive), the GI50 (NCI/ADR-RES) was 20.8 µM (inactive) and the GI50 (OVCAR-3) was 16.9 µM (inactive). For the same molecule, the GI50 (OVCAR-4) was 25.3 µM (inactive), the GI50 (OVCAR-5) was > 100 µM (inactive) and the GI50 (OVCAR-8) was 29.4 µM (inactive). For the same molecule, the GI50 (PC-3) was 22.1 µM (inactive), the GI50 (RPMI-8226) was 28.4 µM (inactive) and the GI50 (SF-268) was 17.5 µM (inactive). For the same molecule, the GI50 (SF-295) was 18.8 µM (inactive), the GI50 (SF-539) was 17.2 µM (inactive) and the GI50 (SK-MEL-28) was 23.6 µM (inactive). For the same molecule, the GI50 (SK-MEL-2) was 22.1 µM (inactive), the GI50 (SK-MEL-5) was 22.3 µM (inactive) and the GI50 (SK-OV-3) was 27 µM (inactive). For the same molecule, the GI50 (SN12C) was 19.5 µM (inactive), the GI50 (SNB-19) was 23 µM (inactive) and the GI50 (SNB-75) was 22.5 µM (inactive). The GI50 (SW-620) was 31 µM (inactive), the GI50 (T47D) was 19.5 µM (inactive) and the GI50 (TK-10) was 50.7 µM (inactive). For the same molecule, the GI50 (U-251) was 23.9 µM (inactive), the GI50 (UACC-257) was 30.9 µM (inactive) and the GI50 (UACC-62) was 19.8 µM (inactive). For the same molecule, the GI50 (UO-31) was 11.5 µM (inactive).

With `COc1c2c(cc3oc(=O)ccc13)OC(C)(C)C=C2` [XANTHOXYLETIN] the GI50 (786-0) was 22.4 µM (inactive), the GI50 (A549) was 31.7 µM (inactive) and the GI50 (ACHN) was 27.9 µM (inactive). The GI50 (BT-549) was 25.6 µM (inactive), the GI50 (CAKI-1) was 2.26 µM (inactive) and the GI50 (COLO 205) was 25.4 µM (inactive). For the same molecule, the GI50 (DU-145) was 20.4 µM (inactive), the GI50 (EKVX) was 37.9 µM (inactive) and the GI50 (HCC 2998) was 18.7 µM (inactive). The GI50 (HCT-116) was 18.6 µM (inactive), the GI50 (HCT-15) was 23.6 µM and the GI50 (HL-60) was 15.8 µM (inactive). The GI50 (HOP-62) was 34.9 µM (inactive), the GI50 (HOP-92) was 7.29 µM (inactive) and the GI50 (HT-29) was 35.8 µM (inactive). The GI50 (Hs-578T) was 29.9 µM (inactive), the GI50 (IGROV-1) was 27.6 µM (inactive) and the GI50 (K562) was 35.2 µM (inactive). The GI50 (KM12) was 19.2 µM (inactive), the GI50 (LOX IMVI) was 21.8 µM (inactive) and the GI50 (M14) was 25.1 µM (inactive). The GI50 (MCF7) was 25.4 µM (inactive), the GI50 (MDA-MB-231) was 19.5 µM (inactive) and the GI50 (MDA-MB-435) was 27.2 µM (inactive). For the same molecule, the GI50 (MDA-N) was 29.4 µM (inactive), the GI50 (MOLT-4) was 23.8 µM (inactive) and the GI50 (Malme-3M) was 30.1 µM (inactive). The GI50 (NCI-H226) was 41.1 µM (inactive), the GI50 (NCI-H23) was 23.6 µM (inactive) and the GI50 (NCI-H460) was 24.2 µM (inactive). For the same molecule, the GI50 (NCI-H522) was 21 µM (inactive), the GI50 (NCI/ADR-RES) was 26 µM (inactive) and the GI50 (OVCAR-3) was 37.9 µM (inactive). For the same molecule, the GI50 (OVCAR-8) was 24.2 µM (inactive), the GI50 (RPMI-8226) was 24.5 µM (inactive) and the GI50 (SF-268) was 41.9 µM (inactive). The GI50 (SF-295) was 34.1 µM (inactive), the GI50 (SF-539) was 36.6 µM (inactive) and the GI50 (SK-MEL-28) was 32.6 µM (inactive). The GI50 (SK-MEL-2) was 23 µM (inactive), the GI50 (SK-MEL-5) was 21.8 µM (inactive) and the GI50 (SK-OV-3) was 40.5 µM (inactive). The GI50 (SN12C) was 29 µM (inactive), the GI50 (SNB-19) was 35.6 µM (inactive) and the GI50 (SNB-75) was 22 µM (inactive). For the same molecule, the GI50 (SR) was 11.5 µM (inactive), the GI50 (SW-620) was 26.1 µM (inactive) and the GI50 (T47D) was 1.48 µM (inactive). The GI50 (TK-10) was 30.9 µM (inactive), the GI50 (U-251) was 24.9 µM (inactive) and the GI50 (UACC-257) was 31.7 µM (inactive). For the same molecule, the GI50 (UACC-62) was 22.6 µM (inactive) and the GI50 (UO-31) was 25.8 µM (inactive).
